Assay results reported in patent US20190136188A1, “4HPR AND ITS USE IN THE CULTURING OF HEMATOPOIETIC STEM CELLS” (UNIVERSITY HEALTH NETWORK, priority 2016, published 2019).

Legend:
[1] = test system: lineage-depleted CB (lin-CB) cells; test: Dose titration of 4HPR, cell viability; assay type: cell-based; conditions: Homo sapiens, 72 h, 3 days post-treatment, read-out: concentration giving half maximal cell viability compared to vehicle control
Description: (A) Dose response of varying [4HPR] in CB at day 3 post-treatment showing 2 uM 4HPR gives the relative half maximal number of viable cells compared to control. All experiments following are at this 4HPR concentration unless otherwise indicated. […] (C) LC/MS was used to profile the ceramide (Cer), dihydroceramide (dhCer), sphingosine (sph), dihydrosphingosine (dhSph), S1P and dihydro-S1P (dhS1P) levels in lin− CB cells cultured for 8 days with control or 4HPR (n=2). […] (D) HSC, MPP, or GMP were sorted into methylcellulose for CFC assays in the presence of control or 4HPR and colonies were blindly scored following 10-11 days for (D) colonies/100 cells and ((E) colony distribution are shown (n=7). (F) Flow cytometry for erythroid (GlyA+) and monocytic (CD14+) markers in live cells from pooled CFC colonies were scored (n=6). (F) Relative number of colonies from CFC assays comparing the effect of 4HPR or ATRA (n=3) on sorted HSC, MPP or GMP.
However, the functional consequence of 4HPR treatment on human cord blood primitive cells is unknown. […]

lin- CB cells = test: 8 day ex vivo expansion culture of lin- CB, flow cytometry; assay type: cell-based, human
From the text: (A) Experimental scheme (B) Representative FACS analysis data of in vitro culture for 16 HSC dose time course (n=3). The number of (C) viable cells, (D) CD15+ myeloid cells, (E) GlyA+ erythroid cells, and (F) CD34+ primitive cells measured for the 16 LTRC dose with HTS flow cytometry analysis at day 8 post-treatment for vehicle control or 4HPR prior to xenotransplantation (n=5 biological replicates, 4 in technical triplicate, marked with different symbols). (G) Human CD45+ engraftment at 16 weeks post transplant in injected femur (n=4, 5 mice/biological experiment). Lineage analysis of control or 4HPR transplanted mice from FIG. 5G for (H) B lymphoid, (I) myeloid, (J) erythroid, and (K) primitive CD34+ at the 16 LTRC dose. (L) CD45+ cells were isolated from 5 biological experiments of the 16 LTRC dose primary mice and transplanted at limiting doses into secondary recipients for 16 weeks. Human CD45+ marking of >0.1% was considered positive for secondary engraftment. Limiting dilutation analysis was performed using ELDA software and the long-term repopulating cell (LTRC) frequency for each biological replicate plotted and the average LTRC frequency calculated.
(A) Representative flow cytometry analysis of the primitive hierarchy within the CD34+ fraction of day 8 cultured lin− CB cells after the indicated treatments for CD90 and CD45RA, n=4. B) The distribution of cultured CD34+CD90+CD45RA− (cHSC), CD34+CD90−CD45RA− (cMPP), and […] for the indicated conditions at day 8 of ex vivo culture following CD34 enrichment. Statistical significance assayed through unpaired t-test relative to vehicle control (Ctrl). The relative number of colonies resulting from (C) HSC or (D) MPP grown in methylcellulose CFC assays in the presence of vehicle control (−) or the indicated combination of 2 uM 4HPR, or 35 nM UM171 or 0.5 uM SR1 at 10 days. Statistical significance is calculated via unpaired t-test relative to ctrl (black) or to the presence of absence of 4HPR treatment for UM171 or SR1.
(A) The number of cells following 8 days of ex vivo culture at the 16 LTRC dose grown as in FIG. 5A for the indicated drug treatments (n=2). […] (2 biological replicates) (E) CD45+ cells were isolated from 2 biological experiments of the 16 LTRC dose primary mice and transplanted at limiting doses into secondary recipients for 16 weeks. Human CD45+ marking of >0.01% was considered positive for secondary engraftment. Limiting dilutation analysis was performed using ELDA software and the long-term repopulating cell (LTRC) frequency for each biological replicate plotted and the average LTRC frequency calculated.
To determine if 4HPR preserves functional HSC in CB liquid culture, we devised an experimental protocol to test the effect of 4HPR treatment in short-term ex vivo expansion culture on repopulation in serial NSG xenotransplantation to functionally read out LT-HSC (FIG. 5A). Briefly, lin− CB (enriched for CD34+) is cultured ex vivo in an in vitro limiting dilution assay (LDA) fashion based on 3 initial cell doses with high (16 functional HSC or LTRC), medium (3.2 LTRC) and limiting (0.65 LTRC) in xenotransplantation. All expanded cells are unbiasly transplanted via intrafemoral injection into NSG mice after 8 days of culture where drug is added every 2 day and reconstitution is assayed 16 weeks following transplantation. […] Human CD45+ cells are isolated from primary mice transplanted with the 16 LTRC dose and serially transplanted in LDA fashion to enumerate functional HSC in the gold-standard for long-term repopulating cell (LTRC). Remarkably, 4HPR treated cells show a 3 fold increase in SRC over control treatment through 32 weeks of xenotransplantation with an average LTRC frequency of 1e6 CD45+ cells (FIG. 5L, n=5, p=0.02). […] Thus, 4HPR acts to preserve LT-HSC function in ex vivo expansion despite limiting total CD34+ cells during culture. […]

[2] = 8 days culture, 4HPR vs vehicle control

## CC1=C(/C=C/C(C)=C/C=C/C(C)=C/C(=O)Nc2ccc(O)cc2)C(C)(C)CCC1 [4HPR, N-(4hydroxyphenyl)retinamide]
[1]
  IC50: 2000 nM
lin- CB cells; [2]
  erythroid differentiation in culture: decreased erythroid differentiation
  immunophenotypic CD34+ cells in culture: fewer immunophenotypic CD34+ cells
  myeloid differentiation in culture: enhanced myeloid differentiation
lin- CB cells; day 8, relative to control
  cHSC in the CD34 compartment: trends to increasing cHSC
  cMPP in the CD34 compartment: increasing cMPP
  percentage of cProg cells in the CD34 compartment: significantly limits the percentage of (cProg) cells
lin- CB cells; lin- CB as well as HSC and MPP, dominant over UM171 or SR1 singularly and in combination
  formation of cProg cells: limits the formation of cProg cells
